From ChEMBL document CHEMBL3112438, “Structure-based optimization of cyclopropyl urea derivatives as potent soluble epoxide hydrolase inhibitors for potential decrease of renal injury without hypotensive action” (Bioorg Med Chem, 2014)
pIC50: −log10 of the molar value. The source made the active and inactive calls. No cut-off for these calls is given here.

How the values were obtained:
[1] = target: T1, Bifunctional epoxide hydrolase 2 (Homo sapiens, UniProt P34913); assay: Inhibition of human recombinant soluble epoxide hydrolase after 1 hr by fluorescence assay
T1 sequence (P34913 whole entry): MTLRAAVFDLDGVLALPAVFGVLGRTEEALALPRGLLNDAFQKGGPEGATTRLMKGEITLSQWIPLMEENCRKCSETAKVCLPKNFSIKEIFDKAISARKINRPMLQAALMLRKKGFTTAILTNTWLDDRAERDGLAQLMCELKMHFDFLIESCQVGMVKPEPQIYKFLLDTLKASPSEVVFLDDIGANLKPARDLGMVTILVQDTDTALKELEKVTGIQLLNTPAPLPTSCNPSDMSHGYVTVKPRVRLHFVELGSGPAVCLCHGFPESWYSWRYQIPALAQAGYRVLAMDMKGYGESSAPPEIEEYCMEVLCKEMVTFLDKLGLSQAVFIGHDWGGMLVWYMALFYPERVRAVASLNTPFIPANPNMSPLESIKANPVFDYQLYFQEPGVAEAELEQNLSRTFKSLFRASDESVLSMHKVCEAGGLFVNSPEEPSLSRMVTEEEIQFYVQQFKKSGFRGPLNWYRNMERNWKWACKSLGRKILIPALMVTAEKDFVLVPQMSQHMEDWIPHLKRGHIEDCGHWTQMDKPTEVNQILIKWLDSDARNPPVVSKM

[2] = target: T2, Bifunctional epoxide hydrolase 2 (Rattus norvegicus, UniProt P80299); assay: Inhibition of rat recombinant soluble epoxide hydrolase after 1 hr by fluorescence assay
T2 sequence (P80299 whole entry): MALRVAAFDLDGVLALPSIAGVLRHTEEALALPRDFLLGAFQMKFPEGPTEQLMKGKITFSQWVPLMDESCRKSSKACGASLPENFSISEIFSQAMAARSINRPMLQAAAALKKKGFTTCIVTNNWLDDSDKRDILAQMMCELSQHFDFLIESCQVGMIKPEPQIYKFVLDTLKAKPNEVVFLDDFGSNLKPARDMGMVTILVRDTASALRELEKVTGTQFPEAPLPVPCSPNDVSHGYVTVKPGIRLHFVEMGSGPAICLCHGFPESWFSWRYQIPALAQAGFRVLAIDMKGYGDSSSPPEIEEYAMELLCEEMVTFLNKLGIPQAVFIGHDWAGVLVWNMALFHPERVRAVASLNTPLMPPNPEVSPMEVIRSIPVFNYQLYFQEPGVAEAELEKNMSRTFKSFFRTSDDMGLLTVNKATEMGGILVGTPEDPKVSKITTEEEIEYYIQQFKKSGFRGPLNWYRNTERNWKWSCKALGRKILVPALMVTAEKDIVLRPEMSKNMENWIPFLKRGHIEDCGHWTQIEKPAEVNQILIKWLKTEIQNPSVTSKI

Liver microsome [3] = assay: Intrinsic clearance in rat liver microsomes measured per mg of protein at 1 uM after 30 mins by LC/MS/MS analysis; format: ADME; conditions: 0.5 h
[4] = Aqueous solubility of the compound at pH 7.4 after 90 mins; format: physicochemical
Liver microsome [5] = assay: Intrinsic clearance in human liver microsomes measured per mg of protein at 1 uM after 30 mins by LC/MS/MS analysis; format: ADME; conditions: 0.5 h
Cytochrome P450 2C8 = target: T3, Cytochrome P450 2C8 (Homo sapiens, UniProt P10632); assay: Inhibition of CYP2C8 in human liver microsomes after 10 mins by LC/MS/MS analysis; format: ADME
T3 sequence (P10632 whole entry): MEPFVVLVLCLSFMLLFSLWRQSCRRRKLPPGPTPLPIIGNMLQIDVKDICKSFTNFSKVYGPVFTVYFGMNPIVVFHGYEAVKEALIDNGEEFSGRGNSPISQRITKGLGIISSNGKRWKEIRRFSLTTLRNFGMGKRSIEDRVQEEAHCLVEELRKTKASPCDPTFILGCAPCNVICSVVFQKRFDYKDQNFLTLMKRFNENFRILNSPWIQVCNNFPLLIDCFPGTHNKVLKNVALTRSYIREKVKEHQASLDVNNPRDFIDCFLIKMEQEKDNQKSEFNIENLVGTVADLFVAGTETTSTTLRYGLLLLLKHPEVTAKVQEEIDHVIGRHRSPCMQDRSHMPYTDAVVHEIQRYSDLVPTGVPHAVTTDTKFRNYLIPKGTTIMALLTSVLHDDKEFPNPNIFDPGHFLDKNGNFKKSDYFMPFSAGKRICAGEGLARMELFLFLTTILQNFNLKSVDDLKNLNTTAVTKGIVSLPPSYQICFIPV

Rattus norvegicus [6] = assay: Renal toxicity in Sprague-Dawley rat DOCA-salt model assessed as effect on N-acetyl-beta-D-glucosaminidase level at 100 mg/kg, po measured on day 28 post last dose; format: organism-based; set-up: dose 100 mg/kg, route oral; conditions: in vivo
Rattus norvegicus [7] = assay: Ex vivo inhibition of soluble epoxide hydrolase in Sprague-Dawley rat whole blood assessed as inhibition of 14,15-DHET production at 100 mg/kg, po measured after 1 to 6 hrs by ELISA relative to vehicle-treated control; format: functional
Cytochrome P450 2C19 = Cytochrome P450 2C19 (Homo sapiens, UniProt P33261); assay: Inhibition of CYP2C19 in human liver microsomes after 10 mins by LC/MS/MS analysis; format: ADME
Cytochrome P450 2C19, sequence (P33261 whole entry): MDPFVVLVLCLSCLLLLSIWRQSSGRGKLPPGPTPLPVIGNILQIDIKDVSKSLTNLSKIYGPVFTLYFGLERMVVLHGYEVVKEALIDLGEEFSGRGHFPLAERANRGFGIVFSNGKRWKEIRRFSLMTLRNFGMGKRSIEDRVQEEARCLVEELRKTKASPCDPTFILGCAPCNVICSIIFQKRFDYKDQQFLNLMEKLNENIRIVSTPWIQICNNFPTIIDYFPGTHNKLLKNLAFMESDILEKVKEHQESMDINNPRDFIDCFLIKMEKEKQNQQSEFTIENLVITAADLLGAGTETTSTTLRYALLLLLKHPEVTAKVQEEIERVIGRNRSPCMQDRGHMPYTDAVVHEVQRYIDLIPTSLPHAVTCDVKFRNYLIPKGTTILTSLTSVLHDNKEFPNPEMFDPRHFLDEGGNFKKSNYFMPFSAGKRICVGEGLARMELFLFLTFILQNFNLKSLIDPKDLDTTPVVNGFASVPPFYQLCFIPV

Rattus norvegicus [8] = assay: Renoprotective activity in Sprague-Dawley rat DOCA-salt model assessed as decrease in urinary albumin excretion at 100 mg/kg, po measured on day 28 post last dose; format: functional, organism-based; set-up: dose 100 mg/kg; conditions: Urine
Rattus norvegicus [9] = assay: Renoprotective activity in Sprague-Dawley rat DOCA-salt model assessed as decrease in urinary MCP-1 excretion at 100 mg/kg, po measured on day 28 post last dose; format: functional, organism-based; set-up: dose 100 mg/kg; conditions: Urine
Rattus norvegicus [10] = assay: Bioavailability in Sprague-Dawley rat at 1 mg/kg, iv and 10 mg/kg, po; format: ADME, organism-based; conditions: in vivo
Rattus norvegicus [11] = assay: AUC in Sprague-Dawley rat at 10 mg/kg, po; format: ADME, organism-based, Plasma; set-up: dose 10 mg/kg, route oral; conditions: in vivo
Rattus norvegicus [12] = assay: Antihypertensive activity in Sprague-Dawley rat DOCA-salt model assessed as decrease in systolic blood pressure at 100 mg/kg, po measured on day 28 post last dose by tail-cuff method; format: functional, organism-based; set-up: dose 100 mg/kg; conditions: Artery
Rattus norvegicus [13] = assay: Ex vivo inhibition of soluble epoxide hydrolase in po dosed Sprague-Dawley rat assessed as inhibition of 14,15-DHET production measured after 1 to 24 hrs by ELISA; format: functional, organism-based

O=C(N[C@H]1C[C@@H]1c1ccccc1)N1CCC(Oc2cccnc2)CC1 (racemic)
pIC50 [1]: 7.60
pIC50 [2]: 7.69

O=C(N[C@H]1C[C@@H]1c1ccccc1)N1CCC(Oc2ccc(Cl)cc2)CC1 (racemic)
pIC50 [1]: 7.65
pIC50 [2]: 8.03

Cc1ccc(OC2CCN(C(=O)N[C@H]3C[C@@H]3c3ccccc3)CC2)cc1 (racemic)
pIC50 [1]: 7.85
pIC50 [2]: 8.17

COc1ccccc1OC1CCN(C(=O)N[C@H]2C[C@@H]2c2ccccc2)CC1 (racemic)
pIC50 [1]: 7.95
pIC50 [2]: 7.89

O=C(O)c1ccccc1OC1CCN(C(=O)N[C@H]2C[C@@H]2c2ccccc2)CC1 (racemic)
pIC50 [1]: < 7.00
pIC50 [2]: < 7.00

O=C(N[C@H]1C[C@@H]1c1ccccc1)N1CCC(Oc2ccccc2)CC1 (racemic)
pIC50 [1]: 7.74
pIC50 [2]: 7.74

O=C(O)c1ccc(OC2CCN(C(=O)N[C@H]3C[C@@H]3c3ccccc3)CC2)cc1 (racemic)
CLint (Liver microsome [3]): < 10 µL/min/mg
solubility at 1.5 h [4]: > 150 µg/mL
CLint (Liver microsome [5]): < 10 µL/min/mg
pIC50 [1]: 7.52
pIC50 [2]: 7.49

O=C(N[C@H]1C[C@@H]1c1ccccc1)N1CCC(Oc2ccc(C(F)(F)F)cc2)CC1 (relative stereo)
pIC50 [1]: 7.53
pIC50 [2]: 8.05

COc1ccc(OC2CCN(C(=O)N[C@H]3C[C@@H]3c3ccccc3)CC2)cc1 (racemic)
pIC50 [1]: 7.99
pIC50 [2]: 8.30

O=C(O)Cc1ccc(OC2CCN(C(=O)N[C@H]3C[C@@H]3c3ccccc3)CC2)c(Cl)c1 (racemic)
CLint (Liver microsome [3]): < 10 µL/min/mg
solubility at 1.5 h [4]: > 150 µg/mL
pIC50 (Cytochrome P450 2C8): < 4.30
Activity (Rattus norvegicus [6]): Non-toxic
inhibition in vivo at 100 mg/kg (Rattus norvegicus [7]): < 20%
CLint (Liver microsome [5]): < 10 µL/min/mg
pIC50 [1]: 8.37
pIC50 [2]: 8.18
pIC50 (Cytochrome P450 2C19): < 4.30
Activity (Rattus norvegicus [8]): Active
Activity (Rattus norvegicus [9]): Active
F (Rattus norvegicus [10]): 63%
AUC (Rattus norvegicus [11]): 30400 ng·h/mL
Activity (Rattus norvegicus [12]): inactive
inhibition (Rattus norvegicus [13]): Dose-dependent effect

O=C(N[C@H]1C[C@@H]1c1ccccc1)N1CCC(Oc2cnccn2)CC1 (racemic)
pIC50 [1]: 7.57
pIC50 [2]: 7.59

O=C(O)Cc1ccc(OC2CCN(C(=O)N[C@H]3C[C@@H]3c3ccccc3)CC2)cc1 (relative stereo)
CLint (Liver microsome [3]): < 10 µL/min/mg
solubility at 1.5 h [4]: > 150 µg/mL
CLint (Liver microsome [5]): < 33 µL/min/mg
pIC50 [1]: 7.36
pIC50 [2]: 7.25

O=C(N[C@H]1C[C@@H]1c1ccccc1)N1CCC(Oc2ccccc2C(F)(F)F)CC1 (racemic)
pIC50 [1]: 8.68
pIC50 [2]: 8.49

COc1cccc(OC2CCN(C(=O)N[C@H]3C[C@@H]3c3ccccc3)CC2)c1 (relative stereo)
pIC50 [1]: 8.13
pIC50 [2]: 8.29

O=C(N[C@H]1C[C@@H]1c1ccccc1)N1CCC(Oc2cccc(Cl)c2)CC1 (racemic)
pIC50 [1]: 7.92
pIC50 [2]: 8.10

O=C(O)c1cccc(OC2CCN(C(=O)N[C@H]3C[C@@H]3c3ccccc3)CC2)c1 (racemic)
CLint (Liver microsome [3]): < 10 µL/min/mg
solubility at 1.5 h [4]: > 150 µg/mL
CLint (Liver microsome [5]): < 10 µL/min/mg
pIC50 [1]: < 7.00
pIC50 [2]: < 7.00

O=C(O)c1ccc(OC2CCN(C(=O)N[C@H]3C[C@@H]3c3ccccc3)CC2)c(Cl)c1 (racemic)
CLint (Liver microsome [3]): < 10 µL/min/mg
solubility at 1.5 h [4]: > 150 µg/mL
pIC50 (Cytochrome P450 2C8): < 4.30
CLint (Liver microsome [5]): < 10 µL/min/mg
pIC50 [1]: 8.59
pIC50 [2]: 8.39
pIC50 (Cytochrome P450 2C19): < 4.30
F (Rattus norvegicus [10]): 31%
AUC (Rattus norvegicus [11]): 15900 ng·h/mL

O=C(N[C@H]1C[C@@H]1c1ccccc1)N1CCC(OC(c2ccccc2)c2ccccc2)CC1 (racemic)
pIC50 [1]: 7.57
pIC50 [2]: 8.28

O=C(N[C@H]1C[C@@H]1c1ccccc1)N1CCC(Oc2cccc(C(F)(F)F)c2)CC1 (racemic)
pIC50 [1]: 7.80
pIC50 [2]: 7.98

O=C(N[C@H]1C[C@@H]1c1ccccc1)N1CCC(Oc2ccccn2)CC1 (racemic)
pIC50 [1]: 7.56
pIC50 [2]: 7.45

O=C(N[C@H]1C[C@@H]1c1ccccc1)N1CCC(Oc2cccc(-c3ccccc3)c2)CC1 (racemic)
pIC50 [1]: 7.97
pIC50 [2]: 8.23

O=C(N[C@H]1C[C@@H]1c1ccccc1)N1CCC(Oc2ncccn2)CC1 (racemic)
pIC50 [1]: 7.03
pIC50 [2]: < 7.00

O=C(N[C@H]1C[C@@H]1c1ccccc1)N1CCC(Oc2ccccc2Cl)CC1 (racemic)
pIC50 [1]: 8.70
pIC50 [2]: 8.46

Cc1cccc(OC2CCN(C(=O)N[C@H]3C[C@@H]3c3ccccc3)CC2)c1 (racemic)
pIC50 [1]: 8.05
pIC50 [2]: 8.19

O=C(N[C@H]1C[C@@H]1c1ccccc1)N1CCC(Oc2ccccc2-c2ccccc2)CC1 (racemic)
pIC50 [1]: 7.83
pIC50 [2]: 7.68

O=C(N[C@H]1C[C@@H]1c1ccccc1)N1CCC(Oc2ccc(-c3ccccc3)cc2)CC1 (racemic)
pIC50 [1]: 7.92
pIC50 [2]: 8.17

Cc1ccccc1OC1CCN(C(=O)N[C@H]2C[C@@H]2c2ccccc2)CC1 (racemic)
solubility at 1.5 h [4]: < 0.2 µg/mL
pIC50 [1]: 8.51
pIC50 [2]: 8.38

O=C(N[C@H]1C[C@@H]1c1ccccc1)N1CCC(Oc2ccncc2)CC1 (racemic)
pIC50 [1]: 7.61
pIC50 [2]: 7.91

O=C(N[C@H]1C[C@@H]1c1ccccc1)N1CCC(Oc2ccc(-c3nnn[nH]3)cc2)CC1 (racemic)
CLint (Liver microsome [3]): < 10 µL/min/mg
solubility at 1.5 h [4]: > 150 µg/mL
pIC50 (Cytochrome P450 2C8): 6.10
CLint (Liver microsome [5]): < 33 µL/min/mg
pIC50 [1]: 8.48
pIC50 [2]: 8.18
